Measurements published in patent publication US10568879B2 (GALAPAGOS NV, priority 2015, dated 2020).

Biological target: T1, GPR84 (Homo sapiens, UniProt Q9NQS5)
T1 construct: expressed in transfected cells
Assay: GPR84 [35S]GTPγS binding assay
Type: biochemical
Settings: 3,3′-diindolylmethane at EC80; membranes from stable cell line over expressing GPR84
Protocol: The following assay can be used for determination of GPR84 activation. The [^35S]GTPγS binding assay measures the level of G protein activation following agonist occupation of a GPCR, by determining the binding of the non-hydrolysable analog [^35S]GTPγS to Gα subunits.
The assay is performed in a 96-well plate where the following reagents are added. First 50 μL compound is added into the assay plate, followed by addition of 20 μL 3,3′-diindolylmethane at EC80 concentration (concentration which gives 80% of the activity of GPR84). Then, 30 μL of a mixture consisting of membranes-GTPγS-SpA beads is added [mixture consists of 20 μg/well membranes derived from stable cell line over expressing GPR84 (membranes are pre-incubated with 0.1 μM GDP for 15 min at 4° C.), 0.1 nM [^35S]GTPγS (Perkin Elmer, NEG030) and 0.5 mg/well PVT-WGA SpA beads (Perkin Elmer, RPNQ0001)]. All components are diluted in assay buffer containing 20 mM Tris pH 7.5; 5 mM MgCl2; 250 mM NaCl; 0.05% BSA; 75 μg/mL saponin. After an incubation of 90 min at room temperature, 20 μL CsCl2 0.8 M (MP Biomedicals, 02150589) is added, followed by centrifugation at 2000 rpm during 20 min. Plates are read on a topcount reader (perkin elmer) immediately after centrifugation (readout time, 1 min/well).

T1 sequence (Q9NQS5 whole entry): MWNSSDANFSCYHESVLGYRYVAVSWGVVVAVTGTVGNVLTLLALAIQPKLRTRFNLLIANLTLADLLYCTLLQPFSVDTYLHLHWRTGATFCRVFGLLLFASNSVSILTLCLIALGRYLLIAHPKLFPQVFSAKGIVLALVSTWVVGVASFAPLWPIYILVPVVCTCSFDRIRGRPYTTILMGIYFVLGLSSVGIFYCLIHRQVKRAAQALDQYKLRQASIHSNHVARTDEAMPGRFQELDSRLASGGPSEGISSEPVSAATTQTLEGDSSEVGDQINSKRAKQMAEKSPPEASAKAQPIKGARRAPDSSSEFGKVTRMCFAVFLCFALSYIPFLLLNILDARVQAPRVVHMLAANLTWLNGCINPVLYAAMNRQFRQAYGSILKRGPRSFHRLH

SMILES | IC50
Cc1c2n(c(OC[C@@H]3COCCO3)cc1=O)CCc1cc(OC3CN(C(=O)C4CC4)C3)ccc1-2 [Compound 118, 9-[1-(cyclopropanecarbonyl)azetidin-3-yl]oxy-4-[[(2S)-1,4-dioxan-2-yl]methoxy]-1-methyl-6,7-dihydrobenzo[a]quinolizin-2-one] | 100 to 500 nM
Cc1c2n(c(OC[C@@H]3COCCO3)cc1=O)CCc1cc(OC3CN(C(=O)C(F)(F)F)C3)ccc1-2 [Compound 119, 4-[[(2)S-1,4-dioxan-2-yl]methoxy]-1-methyl-9-[1-(2,2,2-trifluoroacetyl)azetidin-3-yl]oxy-6,7-dihydrobenzo[a]quinolizin-2-one] | 100 to 500 nM
CCOC(=O)N1CC(Oc2ccc3c(c2)CCn2c(OC[C@@H]4COCCO4)cc(=O)c(C)c2-3)C1 [Compound 120, ethyl 3-[[4-[[(2S)-1,4-dioxan-2-yl]methoxy]-1-methyl-2-oxo-6,7-dihydrobenzo[a]quinolizin-9-yl]oxy]azetidine-1-carboxylate] | 0.01 to 100 nM
Cc1c2n(c(OC[C@@H]3COCCO3)cc1=O)CCc1cc(N3CCC(Oc4cccnc4)CC3)ccc1-2 [Compound 121, 4-[[(2S)-1,4-dioxan-2-yl]methoxy]-1-methyl-9-[4-(3-pyridyloxy)-1-piperidyl]-6,7-dihydrobenzo[a]quinolizin-2-one] | 0.01 to 100 nM
Cc1c2n(c(OC[C@@H]3COCCO3)cc1=O)CCc1cc(N3CCC(C#N)CC3)ccc1-2 [Compound 122, 1-[4-[[(2)S-1,4-dioxan-2-yl]methoxy]-1-methyl-2-oxo-6,7-dihydrobenzo[a]quinolizin-9-yl]piperidine-4-carbonitrile] | 0.01 to 100 nM
Cc1c2n(c(OC[C@@H]3COCCO3)cc1=O)CCc1cc(N3CCCC(F)(F)C3)ccc1-2 [Compound 123, 9-(3,3-difluoro-1-piperidyl)-4-[[(2S)-1,4-dioxan-2-yl]methoxy]-1-methyl-6,7-dihydrobenzo[a]quinolizin-2-one] | 0.01 to 100 nM
Cc1c2n(c(OC[C@@H]3COCCO3)cc1=O)CCc1cc(C(C)C)ccc1-2 [Compound 124, 4-[[(2S)-1,4-dioxan-2-yl]methoxy]-9-isopropyl-1-methyl-6,7-dihydrobenzo[a]quinolizin-2-one] | 0.01 to 100 nM
[2H]c1c(OC[C@@H]2COCCO2)n2c(c(C)c1=O)-c1ccc(OCC(F)(F)F)cc1CC2 [Compound 125, 3-deuterio-4-[[(2S)-1,4-dioxan-2-yl]methoxy]-1-methyl-9-(2,2,2-trifluoroethoxy)-6,7-dihydrobenzo[a]quinolizin-2-one] | 0.01 to 100 nM
[2H]c1c(OC[C@@H]2COCCO2)n2c(c(C)c1=O)-c1ccc(OC([2H])([2H])C([2H])([2H])F)cc1CC2 [Compound 126, 3-deuterio-4-[[(2S)-1,4-dioxan-2-yl]methoxy]-1-methyl-9-(1,1,2,2-tetradeuterio-2-fluoro-ethoxy)-6,7-dihydrobenzo[a]quinolizin-2-one] | 0.01 to 100 nM
Cc1c2n(c(OC[C@@H]3COCCO3)cc1=O)CCc1cc(OC3CCN(C(=O)OC(C)(C)C)C3)ccc1-2 (stereo partly drawn) [Compound 127, tert-butyl 3-[[4-[[(2S)-1,4-dioxan-2-yl]methoxy]-1-methyl-2-oxo-6,7-dihydrobenzo[a]quinolizin-9-yl]oxy]pyrrolidine-1-carboxylate] | 0.01 to 100 nM
Cc1c2n(c(OC[C@@H]3COCCO3)cc1=O)CCc1cc(OC3CCN(C(=O)OC(C)(C)C)CC3)ccc1-2 [Compound 128, tert-butyl 4-[[4-[[(2S)-1,4-dioxan-2-yl]methoxy]-1-methyl-2-oxo-6,7-dihydrobenzo[a]quinolizin-9-yl]oxy]piperidine-1-carboxylate] | 0.01 to 100 nM
Cc1c2n(c(OC[C@@H]3COCCO3)cc1=O)CCc1cc(N(C)CCC(F)(F)F)ccc1-2 [Compound 129, 4-[[(2S)-1,4-dioxan-2-yl]methoxy]-1-methyl-9-[methyl(3,3,3-trifluoropropyl)amino]-6,7-dihydrobenzo[a]quinolizin-2-one] | 0.01 to 100 nM
Cc1c2n(c(OC[C@@H]3COCCO3)cc1=O)CCc1cc(N3CCCC3)ccc1-2 [Compound 130, 4-[[(2S)-1,4-dioxan-2-yl]methoxy]-1-methyl-9-pyrrolidin-1-yl-6,7-dihydrobenzo[a]quinolizin-2-one] | 0.01 to 100 nM
Cc1c2n(c(OC[C@@H]3COCCO3)cc1=O)CCc1cc(N3CCC(F)(F)C3)ccc1-2 [Compound 131, 9-(3,3-difluoropyrrolidin-1-yl)-4-[[(2S)-1,4-dioxan-2-yl]methoxy]-1-methyl-6,7-dihydrobenzo[a]quinolizin-2-one] | 0.01 to 100 nM
Cc1c2n(c(OC[C@@H]3COCCO3)cc1=O)CCc1cc(N3CC(C(F)(F)F)C3)ccc1-2 [Compound 132, 4-[[(2S)-1,4-dioxan-2-yl]methoxy]-1-methyl-9-[3-(trifluoromethyl)azetidin-1-yl]-6,7-dihydrobenzo[a]quinolizin-2-one] | 0.01 to 100 nM
Cc1c2n(c(OC[C@@H]3COCCO3)cc1=O)CCc1cc(N3CC=C(C(F)(F)F)CC3)ccc1-2 [Compound 133, 4-[[(2S)-1,4-dioxan-2-yl]methoxy]-1-methyl-9-[4-(trifluoromethyl)-3,6-dihydro-2H-pyridin-1-yl]-6,7-dihydrobenzo[a]quinolizin-2-one] | 0.01 to 100 nM
Cc1c2n(c(OC[C@@H]3COCCO3)cc1=O)CCc1cc(N3CCC[C@H]3C)ccc1-2 [Compound 134, 4-[[(2S)-1,4-dioxan-2-yl]methoxy]-1-methyl-9-[(2R)-2-methylpyrrolidin-1-yl]-6,7-dihydrobenzo[a]quinolizin-2-one] | 0.01 to 100 nM
Cc1c2n(c(OC[C@@H]3COCCO3)cc1=O)CCc1cc(N3CCCC(F)C3)ccc1-2 (stereo partly drawn) [Compound 135, 4-[[(2S)-1,4-dioxan-2-yl]methoxy]-9-(3-fluoro-1-piperidyl)-1-methyl-6,7-dihydrobenzo[a]quinolizin-2-one] | 0.01 to 100 nM
Cc1c2n(c(OC[C@@H]3COCCO3)cc1=O)CCc1cc(-n3c4ccccc4c4ccccc43)ccc1-2 [Compound 136, 9-carbazol-9-yl-4-[[(2S)-1,4-dioxan-2-yl]methoxy]-1-methyl-6,7-dihydrobenzo[a]quinolizin-2-one] | 0.01 to 100 nM
Cc1c2n(c(OC[C@@H]3COCCO3)cc1=O)CCc1cc(N3CC(C)CC(C)C3)ccc1-2 (stereo partly drawn) [Compound 137, 9-(3,5-dimethyl-1-piperidyl)-4-[[(2S)-1,4-dioxan-2-yl]methoxy]-1-methyl-6,7-dihydrobenzo[a]quinolizin-2-one] | 0.01 to 100 nM
Cc1c2n(c(OC[C@@H]3COCCO3)cc1=O)CCc1cc(N3CCC(C)(C)C3)ccc1-2 [Compound 138, 9-(3,3-dimethylpyrrolidin-1-yl)-4-[[(2S)-1,4-dioxan-2-yl]methoxy]-1-methyl-6,7-dihydrobenzo[a]quinolizin-2-one] | 0.01 to 100 nM
Cc1c2n(c(OC[C@@H]3COCCO3)cc1=O)CCc1cc(N3CCC(C)(C)CC3)ccc1-2 [Compound 139, 9-(4,4-dimethyl-1-piperidyl)-4-[[(2S)-1,4-dioxan-2-yl]methoxy]-1-methyl-6,7-dihydrobenzo[a]quinolizin-2-one] | 0.01 to 100 nM
Cc1c2n(c(OC[C@@H]3COCCO3)cc1=O)CCc1cc(N3CCC(C(F)(F)F)CC3)ccc1-2 [Compound 140, 4-[[(2S)-1,4-dioxan-2-yl]methoxy]-1-methyl-9-[4-(trifluoromethyl)-1-piperidyl]-6,7-dihydrobenzo[a]quinolizin-2-one] | 0.01 to 100 nM
Cc1c2n(c(OC[C@@H]3COCCO3)cc1=O)CCc1cc(N3CCC(C)CC3)ccc1-2 [Compound 141, 4-[[(2S)-1,4-dioxan-2-yl]methoxy]-1-methyl-9-(4-methyl-1-piperidyl)-6,7-dihydrobenzo[a]quinolizin-2-one] | 0.01 to 100 nM
Cc1c2n(c(OC[C@@H]3COCCO3)cc1=O)CCc1cc(NCC(F)(F)F)ccc1-2 [Compound 142, 4-[[(2S)-1,4-dioxan-2-yl]methoxy]-1-methyl-9-(2,2,2-trifluoroethylamino)-6,7-dihydrobenzo[a]quinolizin-2-one] | 0.01 to 100 nM
Cc1c2n(c(OC[C@@H]3COCCO3)cc1=O)CCc1cc(N3CCCCC3C)ccc1-2 (stereo partly drawn) [Compound 143, 4-[[(2S)-1,4-dioxan-2-yl]methoxy]-1-methyl-9-(2-methyl-1-piperidyl)-6,7-dihydrobenzo[a]quinolizin-2-one] | 0.01 to 100 nM
Cc1c2n(c(OC[C@@H]3COCCO3)cc1=O)CCc1cc(OC3CCN(C(=O)C4CC4)C3)ccc1-2 (stereo partly drawn) [Compound 144, 9-[1-(cyclopropanecarbonyl)pyrrolidin-3-yl]oxy-4-[[(2S)-1,4-dioxan-2-yl]methoxy]-1-methyl-6,7-dihydrobenzo[a]quinolizin-2-one] | 100 to 500 nM
CCOC(=O)N1CCC(Oc2ccc3c(c2)CCn2c(OC[C@@H]4COCCO4)cc(=O)c(C)c2-3)C1 (stereo partly drawn) [Compound 145, ethyl 3-[[4-[[(2S)-1,4-dioxan-2-yl]methoxy]-1-methyl-2-oxo-6,7-dihydrobenzo[a]quinolizin-9-yl]oxy]pyrrolidine-1-carboxylate] | 0.01 to 100 nM
Cc1c2n(c(OC[C@@H]3COCCO3)cc1=O)CCc1cc(C3CN(C(=O)C4CC4)C3)ccc1-2 [Compound 146, 9-[1-(cyclopropanecarbonyl)azetidin-3-yl]-4-[[(2S)-1,4-dioxan-2-yl]methoxy]-1-methyl-6,7-dihydrobenzo[a]quinolizin-2-one] | 500 to 1000 nM
